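Compound exposure: 48 hours, 5 concentrations, 96-well plates. The concentration for 50% growth inhibition is given as GI50.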 The source made the active and inactive calls. No stated cut-off is given here; in the data, active = GI50 up to about 1.1 µM and inactive = higher.
What was measured:
Experiment in all cases: NCI-60 cell line screen, 48 h
786-0 = tested on: 786-0
A549 = tested on: A549
ACHN = tested on: ACHN
BT-549 = tested on: BT-549
CAKI-1 = tested on: CAKI-1
CCRF-CEM = tested on: CCRF-CEM
COLO 205 = tested on: COLO 205
DU-145 = tested on: DU-145
EKVX = tested on: EKVX
HCC 2998 = tested on: HCC 2998
HCT-116 = tested on: HCT-116
HCT-15 = tested on: HCT-15
HL-60 = tested on: HL-60
HOP-62 = tested on: HOP-62
HOP-92 = tested on: HOP-92
HT-29 = tested on: HT-29
Hs-578T = tested on: Hs-578T
IGROV-1 = tested on: IGROV-1
K562 = tested on: K562
KM12 = tested on: KM12
LOX IMVI = tested on: LOX IMVI
M14 = tested on: M14
MCF7 = tested on: MCF7
MDA-MB-231 = tested on: MDA-MB-231
MDA-MB-435 = tested on: MDA-MB-435
MDA-N = tested on: MDA-N
MOLT-4 = tested on: MOLT-4
Malme-3M = tested on: Malme-3M
NCI-H226 = tested on: NCI-H226
NCI-H23 = tested on: NCI-H23
NCI-H460 = tested on: NCI-H460
NCI-H522 = tested on: NCI-H522
NCI/ADR-RES = tested on: NCI/ADR-RES
OVCAR-3 = tested on: OVCAR-3
OVCAR-4 = tested on: OVCAR-4
OVCAR-5 = tested on: OVCAR-5
OVCAR-8 = tested on: OVCAR-8
PC-3 = tested on: PC-3
RPMI-8226 = tested on: RPMI-8226
RXF 393 = tested on: RXF 393
SF-268 = tested on: SF-268
SF-295 = tested on: SF-295
SF-539 = tested on: SF-539
SK-MEL-28 = tested on: SK-MEL-28
SK-MEL-2 = tested on: SK-MEL-2
SK-MEL-5 = tested on: SK-MEL-5
SK-OV-3 = tested on: SK-OV-3
SN12C = tested on: SN12C
SNB-19 = tested on: SNB-19
SNB-75 = tested on: SNB-75
SR = tested on: SR
SW-620 = tested on: SW-620
T47D = tested on: T47D
TK-10 = tested on: TK-10
U-251 = tested on: U-251
UACC-257 = tested on: UACC-257
UACC-62 = tested on: UACC-62
UO-31 = tested on: UO-31

Measured: GI50

C=CCN1CCC2(CC1)NC(=O)c1ccccc1O2
inactive: 786-0 > 100 µM | A549 > 100 µM | ACHN > 100 µM | BT-549 > 100 µM | CAKI-1 > 100 µM | CCRF-CEM > 100 µM | COLO 205 > 100 µM | DU-145 > 100 µM | EKVX > 100 µM | HCC 2998 > 100 µM | HCT-116 > 100 µM | HL-60 > 100 µM | HOP-62 > 100 µM | HOP-92 > 100 µM | HT-29 > 100 µM | Hs-578T > 100 µM | IGROV-1 > 100 µM | K562 > 100 µM | KM12 > 100 µM | LOX IMVI > 100 µM | M14 > 100 µM | MCF7 > 100 µM | MDA-MB-231 > 100 µM | MDA-MB-435 > 100 µM | MDA-N > 100 µM | MOLT-4 > 100 µM | Malme-3M > 100 µM | NCI-H226 > 100 µM | NCI-H23 > 100 µM | NCI-H460 > 100 µM | NCI-H522 > 100 µM | NCI/ADR-RES > 100 µM | OVCAR-3 > 100 µM | OVCAR-4 > 100 µM | OVCAR-5 > 100 µM | OVCAR-8 > 100 µM | PC-3 > 100 µM | RPMI-8226 > 100 µM | RXF 393 > 100 µM | SF-268 > 100 µM | SF-295 > 100 µM | SF-539 > 100 µM | SK-MEL-28 > 100 µM | SK-MEL-2 > 100 µM | SK-MEL-5 > 100 µM | SK-OV-3 > 100 µM | SN12C > 100 µM | SNB-19 > 100 µM | SNB-75 > 100 µM | SR > 100 µM | SW-620 > 100 µM | T47D > 100 µM | TK-10 > 100 µM | U-251 > 100 µM | UACC-257 > 100 µM | UACC-62 > 100 µM | UO-31 > 100 µM
> 100 µM: HCT-15

COC1(C)/C=N/CC(C)(C)NC(=O)C(C)(OC)/C=N/CC(C)(C)NC1=O (centres undefined)
> 10 µM: HCT-15
inactive: 786-0 > 10 µM | A549 > 10 µM | ACHN > 10 µM | BT-549 > 10 µM | CAKI-1 > 10 µM | CCRF-CEM > 10 µM | COLO 205 > 10 µM | DU-145 > 10 µM | EKVX > 10 µM | HCC 2998 > 10 µM | HCT-116 > 10 µM | HL-60 > 10 µM | HOP-62 > 10 µM | HOP-92 > 10 µM | HT-29 > 10 µM | Hs-578T > 10 µM | IGROV-1 > 10 µM | K562 > 10 µM | KM12 > 10 µM | M14 > 10 µM | MCF7 > 10 µM | MDA-MB-231 > 10 µM | MDA-MB-435 > 10 µM | MDA-N > 10 µM | MOLT-4 > 10 µM | Malme-3M > 10 µM | NCI-H23 > 10 µM | NCI-H522 3.53 µM | NCI/ADR-RES > 10 µM | OVCAR-4 > 10 µM | OVCAR-8 > 10 µM | PC-3 > 10 µM | RPMI-8226 > 10 µM | RXF 393 > 10 µM | SF-268 > 10 µM | SF-295 > 10 µM | SF-539 > 10 µM | SK-MEL-28 > 10 µM | SK-MEL-5 > 10 µM | SK-OV-3 > 10 µM | SN12C > 10 µM | SNB-19 > 10 µM | SNB-75 > 10 µM | SR > 10 µM | SW-620 > 10 µM | T47D > 10 µM | TK-10 > 10 µM | U-251 > 10 µM | UACC-257 > 10 µM | UACC-62 > 10 µM

— ChEMBL document CHEMBL1201862, “PubChem BioAssay data set” (2004)
